According to patent publication US6472433B2, “Method for treatment of inflammation with R-NSAIDS” (Loma Linda University Medical Center, priority 1999, dated 2002):

How the values were obtained:
[1] = tested on: carrageenan-induced paw edema; experiment: Carrageenan paw test (hind paw edema, plethysmometer); assay type: in vivo, male Long Evans derived rats; conditions: for Result (Reduction of Edema): 1 h before carrageenan, paw volume 3 h after injection
Protocol: In this test, the test compound is administered to several rats. Thereafter, a paw on each rat is injected with a solution of carrageenan in order to induce edema in the paw as a measure of inflammation. After three hours, the volume of the paw is measured using a plethysmometer. Reduction of edema by 30% or more, as compared to a control group which was not given the test compound, is considered indicative of anti-inflammatory activity.
This very pure form of R-flurbiprofen, was tested for anti-inflammatory activity by the carrageenan paw test. Seven groups of eight male Long Evans derived rats weighing 150±20 grams were fasted overnight. One hour after oral administration a suspension of the test substance in 2% Tween 80, as documented in Table 1 below, the right hind paw of each rat was injected intraplantarly with 0.1 ml of a 1% suspension of carrageenan. Three hours after injection, the hind paw volume was measured using a plethysmometer and recorded.

[2] = tested on: carrageenan-induced paw edema; conditions: cited from earlier work; for reduction of edema: dosage of 0.3 mg/kg, enantiomeric purity not disclosed
[3] = humans; cited from earlier work

Compound: CC(=O)Oc1ccccc1C(=O)O [Aspirin, reference compound]
- Anti-Inflammatory Activity ([1]; 150 mg/kg oral): Yes (Reduction of edema by 30% or more, as compared to a control group which was not given the test compound, is considered indicative of anti-inflammatory activity)
- Result (Reduction of Edema) ([1]; 150 mg/kg oral): 42%

Compound: C[C@@H](C(=O)O)c1ccc(-c2ccccc2)c(F)c1 [R-Flurbiprofen, R-flurbiprofen]
- Anti-Inflammatory Activity ([1]; 5 mg/kg oral): Yes (Reduction of edema by 30% or more, as compared to a control group which was not given the test compound, is considered indicative of anti-inflammatory activity)
- Result (Reduction of Edema) ([1]; 5 mg/kg oral): 30%
- Anti-Inflammatory Activity ([1]; 10 mg/kg oral): Yes (Reduction of edema by 30% or more, as compared to a control group which was not given the test compound, is considered indicative of anti-inflammatory activity)
- Result (Reduction of Edema) ([1]; 10 mg/kg oral): 41%
- Anti-Inflammatory Activity ([1]; 20 mg/kg oral): Yes (Reduction of edema by 30% or more, as compared to a control group which was not given the test compound, is considered indicative of anti-inflammatory activity)
- Result (Reduction of Edema) ([1]; 20 mg/kg oral): 47%
- Anti-Inflammatory Activity ([1]; 40 mg/kg oral): Yes (Reduction of edema by 30% or more, as compared to a control group which was not given the test compound, is considered indicative of anti-inflammatory activity)
- Result (Reduction of Edema) ([1]; 40 mg/kg oral): 51%
- reduction of edema [2]: 18%
- reduction in inflammation ([2]; highest dose, 2.5 mg/kg (not at 0.1, 0.3, 1 mg/kg)): statistically significant reduction in inflammation
- S-enantiomer in circulation at steady state (formed by inversion of the R-enantiomer) [3]: 1.5%

Compound: CCc1cccc2c3c([nH]c12)[C@@](CC)(CC(=O)O)OCC3 [R-etodolac]
- S-enantiomer in circulation at steady state (formed by inversion of the R-enantiomer) [3]: 0%

Compound: O=C(c1ccccc1)c1ccc2n1CC[C@H]2C(=O)O [R-ketorolac]
- S-enantiomer in circulation at steady state (formed by inversion of the R-enantiomer) [3]: 6%

Compound: C[C@H](C(=O)O)c1ccc(-c2ccccc2)c(F)c1 [S-flurbiprofen, reference compound]
- reduction of edema [2]: 64%
